From ChEMBL document CHEMBL1148832, “Rational design, structure, and biological evaluation of cyclic peptides mimicking the vascular endothelial growth factor” (J Med Chem, 2007)
Activity calls are given as the source filed them. No cut-off for these calls is given here. *1 amine or outer side, *2 acyl side, *3 side chain or, on linkers, in order; H or OH if unused. Where a SMILES comes first, the peptide text is derived from it. Bridges are numbered along the chain shown (N, C = ends). [ ]: non-standard residue; d: D form. X1 = O=C([C@H](Cc1cc(=O)oc2cc(O)ccc12)N[*:1])[*:2]; hPhe = N[C@@H](CCc1ccccc1)C(=O)O; β3hE = N[C@@H](CCC(=O)O)CC(=O)O

How the values were obtained:
[1] = system: HUVEC; assay: Inhibition of VEGF165-induced cell migration in HUVEC at 100 uM after 6 hrs by wound healing assay; type: functional, cell-based; details: Homo sapiens
[2] = molecular target: Vascular endothelial growth factor receptor 1 (Homo sapiens, UniProt P17948); assay: Displacement of biotinylated VEGF165 from human recombinant VEGFR1 by chemiluminescent assay
Chain of Vascular endothelial growth factor receptor 1 (P17948 whole entry): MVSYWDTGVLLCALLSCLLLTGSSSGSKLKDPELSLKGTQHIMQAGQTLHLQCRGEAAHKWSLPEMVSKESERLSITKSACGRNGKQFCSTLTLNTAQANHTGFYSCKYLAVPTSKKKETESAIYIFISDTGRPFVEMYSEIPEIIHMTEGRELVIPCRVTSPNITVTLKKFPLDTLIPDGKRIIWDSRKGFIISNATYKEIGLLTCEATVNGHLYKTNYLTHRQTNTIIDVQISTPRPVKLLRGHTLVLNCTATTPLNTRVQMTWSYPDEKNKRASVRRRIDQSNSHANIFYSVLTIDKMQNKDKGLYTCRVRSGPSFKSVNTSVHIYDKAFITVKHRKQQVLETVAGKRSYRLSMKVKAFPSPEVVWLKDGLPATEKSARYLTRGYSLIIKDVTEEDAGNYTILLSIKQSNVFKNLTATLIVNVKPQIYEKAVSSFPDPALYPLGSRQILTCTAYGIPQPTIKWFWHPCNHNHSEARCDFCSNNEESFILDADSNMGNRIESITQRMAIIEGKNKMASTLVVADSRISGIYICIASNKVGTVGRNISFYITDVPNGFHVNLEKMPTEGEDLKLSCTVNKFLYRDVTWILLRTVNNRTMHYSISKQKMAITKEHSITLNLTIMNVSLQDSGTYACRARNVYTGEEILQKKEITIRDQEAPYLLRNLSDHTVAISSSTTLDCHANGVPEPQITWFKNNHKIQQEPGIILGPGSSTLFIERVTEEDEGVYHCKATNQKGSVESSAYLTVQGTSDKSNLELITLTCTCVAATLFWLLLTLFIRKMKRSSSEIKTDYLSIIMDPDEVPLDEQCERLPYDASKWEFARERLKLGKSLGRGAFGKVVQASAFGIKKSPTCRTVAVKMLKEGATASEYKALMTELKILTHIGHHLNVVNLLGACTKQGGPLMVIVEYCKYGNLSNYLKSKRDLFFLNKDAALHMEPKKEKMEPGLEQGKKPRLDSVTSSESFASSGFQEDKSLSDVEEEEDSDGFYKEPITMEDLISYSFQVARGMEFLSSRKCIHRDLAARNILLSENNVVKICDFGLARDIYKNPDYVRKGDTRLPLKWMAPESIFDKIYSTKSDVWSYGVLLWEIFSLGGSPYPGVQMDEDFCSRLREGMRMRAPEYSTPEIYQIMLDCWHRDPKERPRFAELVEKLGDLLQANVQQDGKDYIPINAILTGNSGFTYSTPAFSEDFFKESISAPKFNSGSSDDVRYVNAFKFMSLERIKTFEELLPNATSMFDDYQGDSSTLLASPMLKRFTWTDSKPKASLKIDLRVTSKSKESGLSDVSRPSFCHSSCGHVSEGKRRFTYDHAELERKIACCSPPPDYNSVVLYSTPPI

SMILES	Activity [1]	IC50 [2] [µM]
CC(C)C[C@@H]1NC(=O)CNC(=O)[C@H](CCC(=O)O)NC(=O)[C@H](CC(=O)O)NC(=O)[C@H](Cc2ccc(O)cc2)NC(=O)[C@H](Cc2ccc(O)cc2)NC(=O)CC[C@@H](C(N)=O)NC(=O)[C@H](CCC(=O)O)NC1=O (YYDEGLEE-NH2; lactam N-8)	Active	
CC(C)C[C@@H]1NC(=O)CNC(=O)[C@H](CCC(=O)O)NC(=O)[C@H](Cc2cc(=O)oc3cc(O)ccc23)NC(=O)[C@H](CCc2ccccc2)NC(=O)CC[C@@H](CC(N)=O)NC(=O)[C@H](CCC(=O)O)NC1=O ([hPhe][X1]EGLE[β3hE]-NH2; lactam N-7)	Active	
CC(C)C[C@@H]1NC(=O)CNC(=O)[C@H](CCC(=O)O)NC(=O)[C@H](Cc2cc(=O)oc3cc(O)ccc23)NC(=O)[C@H](CCc2ccccc2)NC(=O)CC[C@@H](C(N)=O)NC(=O)[C@H](CCC(=O)O)NC1=O ([hPhe][X1]EGLEE-NH2; lactam N-7)		19.3
